We go through two molecules from patent US9925192B2, “Method for treating cancer” (Merck Sharp & Dohme Corp., priority 2014, dated 2018).

As usually defined, the viability is a read-out of living cells in per cent, often relative to untreated cells.

In experiment [1] the test system is H128 SCLC cells. The experiment in a line: In vitro cell viability (Cell Titer Glo), 8 hours of compound treatment. Conditions: Homo sapiens, read-out: % Viability Remaining (8 hr), mean. Type of experiment: cell-based. The method, then: (§1) All cell lines were grown in exponential growth phase.
Experiment [2] has as its system H146 SCLC cells. The experiment is described as above. Type of experiment: cell-based. Conditions: Homo sapiens, read-out: % Viability Remaining (8 hr), mean. The method, then:
as §1

Experiment [3] relates to H82 SCLC cells. The experiment is described as above. Conditions: Homo sapiens, read-out: % Viability Remaining (8 hr), mean. Type of experiment: cell-based. The protocol:
as §1

Experiment [4] deals with Su-DHL-4 DLBCL cells. The description is as above. Type of experiment: cell-based. Conditions: Homo sapiens, read-out: % Viability Remaining (8 hr), mean. The method, then:
as §1

In experiment [5] the test system is Su-DHL-8 DLBCL cells. Described as above. Type of experiment: cell-based. Conditions: Homo sapiens, read-out: % Viability Remaining (8 hr), mean. The protocol: as §1
Experiment [6] concerns NCI-H82 human Small Cell Lung Cancer (SCLC) xenograft. The experiment in a line: NCI-H82 human Small Cell Lung Cancer xenograft model. The following applies: dinaciclib 40 mg/kg ip q4d, ABT-199 100 mg/kg po qd. Type of experiment: in vivo, mouse. The method, then: (§2) The cells were cultured in tissue culture flasks in a humidified incubator at 37° C., in an atmosphere of 5% CO2 and 95% air.
(§3) Body weight was measured at least twice weekly.
In general terms: A xenograft is tissue or cells of one species grown in another, often human tumour cells in immunodeficient mice.

Experiment [7] relates to SUDHL4 human Diffuse Large B-Cell Lymphoma (DLBCL) xenograft. Type of experiment: in vivo. The following applies: dinaciclib 40 mg/kg ip q4d, ABT-199 100 mg/kg po qd, dosing for eleven days, combination measured on day 18. The method, then: as §2, §3
The subject of experiment [8] is TOLEDO human Diffuse Large B-Cell Lymphoma (DLBCL) xenograft. The experiment in a line: Toledo human DLBCL xenograft model. The following applies: dinaciclib 40 mg/kg ip q4d, ABT-199 100 mg/kg po qd, alone or combined.
Description: Eight week old female SCID beige mice (Fox Chase SCID® Beige) with body weights ranging from 18.0 to 22 grams were used for this study. Toledo tumor cells were grown to mid-log phase in RPMI-1640 medium containing 10% fetal bovine serum, 100 units/mL penicillin G, 100 μg/mL streptomycin sulfate, and 10 mM sodium pyruvate. The cells were cultured in tissue culture flasks in a humidified incubator at 37° C., in an atmosphere of 5% CO2 and 95% air. Mice were implanted subcutaneously in the right flank with 5×10e^6 tumor cells in 50% matrigel in a total volume of 0.1 ml. Twenty-eight days after inoculation, mice were randomized into groups when tumors reached an average tumor volume of ˜160 mm^3.
Dinaciclib, formulated in 20% hydroxypropyl beta-cyclodextrin (HPBCD), was dosed at 40 mg/kg intraperitoneal (ip) every four days (q4d). […] Both test agents were administered at 10 ml/kg.
Tumor volume (TV) was measured twice a week using calipers. Tumor volume was calculated by the elliptical formula: Tumor Volume=width2×length/2. Body weight was measured at least twice weekly. […] Statistical Analysis of Tumor Growth Inhibition (TGI) was analyzed by one-way ANOVA followed by Tukey's multiple comparison test.

On to `CC1(C)CCC(CN2CCN(c3ccc(C(=O)NS(=O)(=O)c4ccc(NCC5CCOCC5)c([N+](=O)[O-])c4)c(Oc4cnc5[nH]ccc5c4)c3)CC2)=C(c2ccc(Cl)cc2)C1` [ABT-199, 4-(4-{[2-(4-chlorophenyl)-4,4-dimethylcyclohex-1-en-1-yl]methyl}piperazin-1-yl)-N-({3-nitro-4-[(tetrahydro-2H-pyran-4-ylmethyl)amino]phenyl}sulfonyl)-2-(1H-pyrrolo[2,3-b]pyridin-5-yloxy)benzamide], for which the viability at 1 µM was found to be 95.4% in experiment [1] (NCI-H128, 8 h); 92.6% in experiment [2] (NCI-H146, 8 h); 111% in experiment [3] (8 h); 85.4% in experiment [4] (SU-DHL-4, 8 h); 99.4% in experiment [5] (SU-DHL-8, 8 h). The “Effect on tumor growth (single agents)” value in experiment [6] is on record as “no effect on tumor growth”. Also, the “Anti-tumor effect (tumor volume)” value in experiment [7] is “single agent activity”; in experiment [8], “provided anti-tumor effects”.

As for `CCc1cnn2c(NCc3ccc[n+]([O-])c3)cc(N3CCCC[C@H]3CCO)nc12` [dinaciclib, (S)-(−)-2-(1-{3-ethyl-7-[(1-oxy-pyridin-3-ylmethyl)amino]pyrazolo[1,5-a]pyrimidin-5-yl}piperidin-2-yl)ethanol], the viability at 0.1 µM in experiment [1] (NCI-H128, H128 SCLC, dinaciclib 0.1 uM, 8 hr) was 114%; in experiment [2] (NCI-H146, H146 SCLC, dinaciclib 0.1 uM, 8 hr), 118%; in experiment [3] (H82 SCLC, dinaciclib 0.1 uM, 8 hr) it was 64.7%; in experiment [4] (Su-DHL-4 DLBCL, dinaciclib 0.1 uM, 8 hr) it was 53.5%; in experiment [5] (Su-DHL-8 DLBCL, dinaciclib 0.1 uM, 8 hr), 126%.
